Entries after “also recorded” stand apart in the source; their conditions may differ.
Experiments:
H1299 lung cancer cells = test: Immunofluorescence imaging of immune synapses between cancer and γδ T cells; type: cell-based, human
Method: (§1) For drug treatment experiments, cells were cultured with 100 nM decitabine (DAC; A3656, Sigma-Aldrich) for three days with daily change of complete medium and drug replenishment, followed by 3 to 4 days of cell recovery in the decitabine-free medium. To block the DAC's effect on immune synapse formation via actin cytoskeleton reorganization, the DAC-pretreated (D3R3) cells were treated with 1 μg/mL cytochalasin B (Cyto B; C6762, Sigma-Aldrich) for 1.5 hours prior to coculture with γδ T cells.
Cancer and γδ T cells were spun down onto poly-L-lysine coated coverslips by using a Cyto-Tek table-top cytofuge at 500 rpm for 5 minutes (Sakura Scientific) before fixation with ice-cold methanol or 4% (w/v) paraformaldehyde in PBS for 10 minutes. The fixed samples were blocked in detergent-free blocking solution [1% normal donkey serum (ab7475, abcam) and 3% BSA in PBS] without membrane permeabilization by detergents. Subsequently, cells were incubated with primary antibodies diluted in the blocking solution for 1 hour in a moist chamber at room temperature and washed with PBS. Labeling of fluorescent secondary antibodies at 1:200 dilution in PBS was carried out in the blocking buffer for 1 hour at room temperature. After PBS washing, cell nuclei were stained with Hoechst 33342 or DAPI (62248, Thermo Fisher Scientific) in PBS. Finally, the samples were washed with PBS and mounted on the slides. All slides were examined under an epifluorescence microscope EVOS FLc (Invitrogen), and the images were analyzed using the ImageJ software. For the visualization of immune synaptic proteins, cells were imaged with a high-resolution confocal microscope (LSM780, Zeiss) with a 63×oil objective and analyzed with the confocal software ZEN (Zeiss).

A549 lung cancer cells = test: Real-time impedance (ECIS) monitoring of γδ T cell killing; settings: low dose
Method: In addition, real-time monitoring of γδ T-mediated killing of cancer cells was performed using the Electric Cell-Substrate Impedance Sensing (ECIS) monitoring system with an 8W10E+ culture chamber (Applied Biophysics). Mock or DAC-treated cancer cells were cultured in the chamber at 37° C. overnight until the cancer cells were fully attached to the bottom of the wells. Following the addition of γδ T cells, the detachment of cancer cells indicating cell death was recorded in real-time using multiple frequency capture with the ECIS software. Relative impendence at the time of γδ T cell addition was used for between-sample normalization.

[1] = system: A549, H1299 and CL1-0 human lung cancer cell lines; test: SILAC-based surface proteomics compared across cell lines; settings: D3R3, A549, H1299, CL1-0
Method: as §1
(§2) For quantitative mass spectrometry analysis, lung cancer cells were cultured for at least seven cell doublings in SILAC RPMI medium (88365, Thermo Fisher Scientific) supplemented with 10% FBS and heavy isotope-labeled amino acids (L-Lysine 13C6, L-Arginine 13C6) (CLM-2247-H-1, CLM-2265-H-1, Cambridge Isotope Laboratories). DAC-treated cells grown in the regular medium were considered as SILAC light counterparts.
(§3) Cancer cells (around 1.5×10^7 cells) were grown in a 15-cm culture dish and washed with ice-cold PBS (21040CM, Corning) before the labeling. […] The protein concentration of the supernatants was determined using Pierce 660 nm Protein Assay Reagent Kit (22660, Thermo Fisher Scientific) supplemented with Ionic Detergent Compatibility Reagent (22663, Thermo Fisher Scientific). […]

[2] = system: A549 human lung cancer cells; test: SILAC-based quantitative surface proteomics of decitabine-treated cells; type: cell-based; settings: A549, both D3 and D3R3, 100 nM
Method: as §1, §2, §3

[3] = DAC D3R3 plus 1 μg/mL Cyto B 1.5 hours

SMILES	DAC-induced F-actin clustering and pTyr signaling at immune synapses (H1299 lung cancer cells; [3])	ICAM-1 expression at immune synapses (H1299 lung cancer cells; [3])	DAC effects on width of the synaptic cleft (H1299 lung cancer cells; DAC plus Cyto B)	DAC's enhancing effects on immune synapse formation (H1299 lung cancer cells; DAC plus Cyto B)	Cytotoxicity / cell viability with DAC alone (A549 lung cancer cells)	Number of proteins commonly upregulated in all three lung cancer cell lines [1]	Number of proteins with sustained upregulation by at least 1.4-fold [2]
C=C1[C@@H](C)[C@H]2[C@H](Cc3ccccc3)NC(=O)[C@]23OC(=O)/C=C/[C@H](O)CCC[C@@H](C)C/C=C/[C@H]3[C@@H]1O [cytochalasin B]	abolished	minimal effects	diminished	significantly counteracted	–	–	–
Nc1ncn([C@H]2C[C@H](O)[C@@H](CO)O2)c(=O)n1 [DAC, decitabine]	–	–	–	–	does not cause significant cytotoxicity; also recorded: minimal effects on cell viability	431	314

Source: patent US12514866B2, “Method for treating cancer” (National Taiwan University, priority 2021, dated 2026)
